# From publication PMC6013247, “Preclinical characterization of INCB053914, a novel pan-PIM kinase inhibitor, alone and in combination with anticancer agents, in models of hematologic malignancies” (PLoS ONE, 2018)
# How the values were obtained:
# OCI-LY-3 = assay: Cell proliferation assay ([3H]-thymidine); format: cell-based; conditions: Homo sapiens, OCI-Ly3; OCI-LY-3 (DLBCL); read-out: Mean (± SD) GI50
# Method: (§1) The antiproliferative effects of INCB053914 on hematologic tumor cells were investigated using assays described in the Supporting Information (S2 File).
# (§2) Cell proliferation assays. […] After 3 to 4 days, [^3H]-thymidine (1 μCi/well) (PerkinElmer) in PBS (10 μl) was added to the cell culture for an additional 12 hours. The incorporated radioactivity was separated by filtration with water through GF/B filters (Packard Bioscience, Meriden, Connecticut) and measured by liquid scintillation counting with a TopCount (Packard Bioscience).
# JVM2 = assay: Cell proliferation assay ([3H]-thymidine); format: cell-based; conditions: JVM2 (MCL)
# Method: as §1, §2
# MV-411 = assay: Cell proliferation assay ([3H]-thymidine); format: cell-based; conditions: MV-411 (AML)
# Method: as §1, §2
# Mino = assay: Cell proliferation assay ([3H]-thymidine); format: cell-based; conditions: Homo sapiens; Mino (MCL); read-out: Mean (± SD) GI50
# Method: as §1, §2
# KMS-34 = assay: Cell proliferation assay ([3H]-thymidine); format: cell-based; conditions: KMS-34 (MM)
# Method: as §1, §2
# KMS-28-BM = assay: Cell proliferation assay ([3H]-thymidine); format: cell-based; conditions: KMS-28-BM (MM)
# Method: as §1, §2
# MOLP-2 = assay: Cell proliferation assay ([3H]-thymidine); format: cell-based; conditions: MOLP-2 (MM)
# Method: as §1, §2
# RPMI-6666 = assay: Cell proliferation assay ([3H]-thymidine); format: cell-based; conditions: Homo sapiens; RPMI-6666 (HL); read-out: Mean (± SD) GI50
# Method: as §1, §2
# WSU-NHL = assay: Cell proliferation assay ([3H]-thymidine); format: cell-based; conditions: WSU-NHL (DLBCL)
# Method: as §1, §2
# KMS-12-PE = assay: Cell proliferation assay ([3H]-thymidine); format: cell-based; conditions: KMS-12-PE (MM)
# Method: as §1, §2
# INA-6 = assay: Cell proliferation assay ([3H]-thymidine); format: cell-based; conditions: INA-6 (MM)
# Method: as §1, §2
# MOLP-8 = assay: Cell proliferation assay ([3H]-thymidine); format: cell-based; conditions: MOLP-8 (MM)
# Method: as §1, §2
# KG-1a = assay: Cell proliferation assay ([3H]-thymidine); format: cell-based; conditions: KG-1a (AML)
# Method: as §1, §2
# Pfeiffer = assay: Cell proliferation assay ([3H]-thymidine); format: cell-based; conditions: Pfeiffer (DLBCL)
# Method: as §1, §2
# MM1.S = assay: Cell proliferation assay ([3H]-thymidine); format: cell-based; conditions: MM1.S (MM)
# Method: as §1, §2
# MOLM-13 = assay: Cell proliferation assay ([3H]-thymidine); format: cell-based; conditions: Homo sapiens; MOLM-13 (AML); read-out: Mean (± SD) GI50
# Method: as §1, §2
# OCI-LY-10 = assay: Cell proliferation assay ([3H]-thymidine); format: cell-based; conditions: OCI-LY-10 (DLBCL)
# Method: as §1, §2
# F36P = assay: Cell proliferation assay ([3H]-thymidine); format: cell-based; conditions: F36P (AML)
# Method: as §1, §2
# Kasumi-3 = assay: Cell proliferation assay ([3H]-thymidine); format: cell-based; conditions: Kasumi-3 (AML)
# Method: as §1, §2
# L363 = assay: Cell proliferation assay ([3H]-thymidine); format: cell-based; conditions: L363 (MM)
# Method: as §1, §2
# SUDHL-1 = assay: Cell proliferation assay ([3H]-thymidine); format: cell-based; conditions: Homo sapiens, SU-DHL-1; SUDHL-1 (DLBCL); read-out: Mean (± SD) GI50
# Method: as §1, §2
# AXL = AXL (Homo sapiens, UniProt P30530); assay: Kinase selectivity panel; format: biochemical; conditions: [ATP] = 1 mM
# Sequence of AXL (P30530 26-894): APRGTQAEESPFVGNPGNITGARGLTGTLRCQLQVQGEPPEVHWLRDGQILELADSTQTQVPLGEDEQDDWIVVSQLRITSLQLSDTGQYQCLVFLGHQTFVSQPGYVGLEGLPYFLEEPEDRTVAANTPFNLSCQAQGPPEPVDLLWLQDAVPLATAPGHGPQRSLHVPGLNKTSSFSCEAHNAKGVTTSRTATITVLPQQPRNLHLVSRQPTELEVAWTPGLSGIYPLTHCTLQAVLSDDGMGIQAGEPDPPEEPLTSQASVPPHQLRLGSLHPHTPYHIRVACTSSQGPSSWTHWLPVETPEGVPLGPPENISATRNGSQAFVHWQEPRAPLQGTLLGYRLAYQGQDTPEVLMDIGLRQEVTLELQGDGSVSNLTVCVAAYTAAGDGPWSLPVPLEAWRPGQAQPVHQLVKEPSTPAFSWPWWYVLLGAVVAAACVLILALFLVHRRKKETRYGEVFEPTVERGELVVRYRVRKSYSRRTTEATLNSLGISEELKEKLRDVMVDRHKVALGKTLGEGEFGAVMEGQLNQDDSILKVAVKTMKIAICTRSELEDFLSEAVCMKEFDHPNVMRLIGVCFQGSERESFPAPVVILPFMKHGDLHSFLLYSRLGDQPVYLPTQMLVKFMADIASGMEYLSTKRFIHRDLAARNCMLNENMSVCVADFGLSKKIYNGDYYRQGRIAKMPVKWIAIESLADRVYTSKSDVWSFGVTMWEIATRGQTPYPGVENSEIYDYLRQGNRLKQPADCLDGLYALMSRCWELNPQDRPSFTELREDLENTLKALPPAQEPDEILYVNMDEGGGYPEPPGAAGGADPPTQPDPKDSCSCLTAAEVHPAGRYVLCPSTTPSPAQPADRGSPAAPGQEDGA
# MAP3K8 = MAP3K8 (Homo sapiens, UniProt P41279); assay: Kinase selectivity panel; format: biochemical; conditions: [ATP] = 1 mM
# Sequence of MAP3K8 (P41279 whole entry): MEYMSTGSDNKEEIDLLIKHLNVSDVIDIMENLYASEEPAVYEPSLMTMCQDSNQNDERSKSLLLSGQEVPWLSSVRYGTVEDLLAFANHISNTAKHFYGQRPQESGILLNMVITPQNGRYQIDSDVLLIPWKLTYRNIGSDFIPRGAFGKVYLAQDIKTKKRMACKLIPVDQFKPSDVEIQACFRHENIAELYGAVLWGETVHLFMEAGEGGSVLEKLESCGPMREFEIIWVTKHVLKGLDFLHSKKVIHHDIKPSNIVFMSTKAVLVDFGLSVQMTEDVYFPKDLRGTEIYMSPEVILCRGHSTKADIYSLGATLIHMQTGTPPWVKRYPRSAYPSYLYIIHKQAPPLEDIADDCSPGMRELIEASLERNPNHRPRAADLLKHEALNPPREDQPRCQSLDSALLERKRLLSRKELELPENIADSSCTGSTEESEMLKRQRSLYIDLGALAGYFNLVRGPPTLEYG
# TGFBR1 = TGFBR1 (Homo sapiens, UniProt P36897); assay: Kinase selectivity panel; format: biochemical; conditions: [ATP] = 1 mM
# Sequence of TGFBR1 (P36897 34-503, species assumed): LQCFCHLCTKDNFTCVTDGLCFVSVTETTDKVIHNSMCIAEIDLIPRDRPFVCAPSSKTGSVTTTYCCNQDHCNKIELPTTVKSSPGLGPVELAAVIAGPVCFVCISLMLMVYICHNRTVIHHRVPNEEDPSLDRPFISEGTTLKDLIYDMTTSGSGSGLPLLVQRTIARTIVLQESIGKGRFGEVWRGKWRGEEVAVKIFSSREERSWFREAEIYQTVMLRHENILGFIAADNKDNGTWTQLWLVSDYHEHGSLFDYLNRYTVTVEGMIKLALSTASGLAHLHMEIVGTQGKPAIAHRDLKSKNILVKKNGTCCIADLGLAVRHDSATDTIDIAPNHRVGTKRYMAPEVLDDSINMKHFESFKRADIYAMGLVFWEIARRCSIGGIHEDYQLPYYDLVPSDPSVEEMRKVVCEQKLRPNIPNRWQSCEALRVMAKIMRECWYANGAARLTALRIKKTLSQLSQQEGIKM
# [1] = Homo sapiens, read-out: Mean (± SD) GI50
compound,measurement,setting,value
"C[C@H]1CN(c2c(NC(=O)c3ccc(F)c(-c4c(F)cccc4F)n3)cnc3c2CC[C@H]3O)C[C@@H](N)[C@@H]1O.O=P(O)(O)O [INCB053914, N-((R)-4-((3R,4R,5S)-3-amino-4-hydroxy-5-methylpiperidin-1-yl)-7-hydroxy-6,7-dihydro-5H-cyclopenta[b]pyridin-3-yl)-6-(2,6-difluorophenyl)-5-fluoropicolinamide phosphate]",GI50,OCI-LY-3,> 3000 nM
same,GI50,"JVM2; Homo sapiens, JVM-2, read-out: Mean (± SD) GI50",290 ± 291 nM
same,Mean (SD) maximum inhibition,JVM2,63.0 ± 8.7%
same,GI50,"MV-411; Homo sapiens, MV4-11, read-out: Mean (± SD) GI50",35.2 ± 41.7 nM
same,Mean (SD) maximum inhibition,MV-411,94.3 ± 3.9%
same,GI50,Mino,> 3000 nM
same,Mean (SD) maximum inhibition,KMS-34,98.8 ± 0.5%
same,GI50,KMS-34; read-out: Mean (± SD) GI50,87.1 ± 28 nM
same,Mean (SD) maximum inhibition,KMS-28-BM,86.0 ± 3.7%
same,GI50,KMS-28-BM; read-out: Mean (± SD) GI50,36.7 ± 9.9 nM
same,Mean (SD) maximum inhibition,MOLP-2,95.4 ± 3.2%
same,GI50,MOLP-2; read-out: Mean (± SD) GI50,23.8 ± 10.1 nM
same,GI50,RPMI-6666,> 3000 nM
same,GI50,WSU-NHL; [1],1270 nM
same,Mean (SD) maximum inhibition,WSU-NHL,76.8 ± 10.5%
same,GI50,KMS-12-PE; [1],89.7 ± 50.9 nM
same,Mean (SD) maximum inhibition,KMS-12-PE,97.0 ± 4.7%
same,Mean (SD) maximum inhibition,INA-6,99.0 ± 0.2%
same,GI50,INA-6; read-out: Mean (± SD) GI50,24.8 ± 4.6 nM
same,GI50,MOLP-8; [1],13.2 ± 7.7 nM
same,Mean (SD) maximum inhibition,MOLP-8,93.3 ± 1.7%
same,GI50,KG-1a; [1],14.3 ± 4.9 nM
same,Mean (SD) maximum inhibition,KG-1a,94.5 ± 1.5%
same,GI50,Pfeiffer; [1],19.5 nM
same,Mean (SD) maximum inhibition,Pfeiffer,90.5 ± 6.7%
same,GI50,MM1.S; [1],55.4 ± 38.1 nM
same,Mean (SD) maximum inhibition,MM1.S,88.3 ± 3.1%
same,GI50,MOLM-13,> 3000 nM
same,GI50,"OCI-LY-10; Homo sapiens, OCI-Ly10, read-out: Mean (± SD) GI50",41.7 ± 29.4 nM
same,Mean (SD) maximum inhibition,OCI-LY-10,96.3 ± 5.5%
same,Mean (SD) maximum inhibition,F36P,94.7 ± 2.5%
same,GI50,F36P; read-out: Mean (± SD) GI50,76.1 ± 36.7 nM
same,Mean (SD) maximum inhibition,Kasumi-3,84.3 ± 7.2%
same,GI50,Kasumi-3; read-out: Mean (± SD) GI50,4.9 nM
same,GI50,"L363; Homo sapiens, L-363, read-out: Mean (± SD) GI50",115 ± 89.4 nM
same,Mean (SD) maximum inhibition,L363,90.3 ± 8.1%
same,GI50,SUDHL-1,> 3000 nM
same,IC50,AXL,> 20000 nM
same,IC50,MAP3K8,> 20000 nM
same,IC50,TGFBR1,> 20000 nM
